In patent US7915276B2, “Berberrubine derivatives having antifungal activities” (priority 2006, dated 2011):

Tests used:
[1] = molecular target: T1, chitin synthase 1 of Candida albicans chs2 Δ chs 3 Δ (Candida albicans, UniProt P23316); test: In vitro enzyme assay for chitin synthase 1 of Candida albicans (enzyme 1); assay type: biochemical; settings: relative to polyoxin D (50% inhibitory activity = value 5)
T1 construct: Crude enzyme was prepared using the Candida albicans chs2 Δ chs 3 Δ mutant; endogenous in cells; host or cells: Candida albicans chs2Δ/chs2Δ chs3Δ/chs3Δ mutant; 130,000 x g membrane pellet
T1 sequence (P23316 whole entry, stated change not applied): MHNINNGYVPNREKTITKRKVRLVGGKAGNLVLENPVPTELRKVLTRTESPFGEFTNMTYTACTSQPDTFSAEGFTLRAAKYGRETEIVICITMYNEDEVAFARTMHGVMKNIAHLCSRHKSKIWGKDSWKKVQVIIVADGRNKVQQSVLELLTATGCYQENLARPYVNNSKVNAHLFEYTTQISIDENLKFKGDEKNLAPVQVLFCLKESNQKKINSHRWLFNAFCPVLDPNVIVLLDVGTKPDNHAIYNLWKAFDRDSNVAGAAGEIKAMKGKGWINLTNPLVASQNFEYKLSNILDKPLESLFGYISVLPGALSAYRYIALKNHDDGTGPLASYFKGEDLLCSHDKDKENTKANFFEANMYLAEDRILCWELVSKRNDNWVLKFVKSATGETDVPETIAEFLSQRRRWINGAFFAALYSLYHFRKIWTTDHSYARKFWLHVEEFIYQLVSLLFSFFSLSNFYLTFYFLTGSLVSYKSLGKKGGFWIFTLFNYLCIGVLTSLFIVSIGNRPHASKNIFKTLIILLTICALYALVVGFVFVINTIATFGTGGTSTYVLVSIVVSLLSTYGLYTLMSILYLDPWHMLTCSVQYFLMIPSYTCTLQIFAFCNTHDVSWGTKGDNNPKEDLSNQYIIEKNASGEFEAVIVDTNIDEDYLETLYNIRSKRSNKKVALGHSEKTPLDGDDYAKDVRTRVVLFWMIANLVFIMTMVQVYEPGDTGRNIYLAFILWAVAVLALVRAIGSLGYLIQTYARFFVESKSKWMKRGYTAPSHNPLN
Outline: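 Crude membrane enzyme from the C. albicans chs2Δ chs3Δ strain was trypsin-activated for 15 min at 30 °C. Reaction: 32 mM Tris-HCl pH 7.5, 2 mM cobalt acetate, 1.1 mM UDP-[14C]GlcNAc, 90 min at 30 °C; TCA-insoluble radioactivity counted. Scored 1–8 by relative polyoxin D concentration (5 = equal).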

[2] = molecular target: T2, chitin synthase 2 of Saccharomyces cerevisiae ECY38-38A(pAS6) (Saccharomyces cerevisiae, UniProt P14180); test: In vitro enzyme assay for chitin synthase 2 of Saccharomyces cerevisiae (enzyme 2); assay type: biochemical; settings: relative to polyoxin D (50% inhibitory activity = value 5)
T2 construct: made in house; host or cells: Saccharomyces cerevisiae ECY38-38A (chs1-23 chs2::LEU2 cal1/csd2) carrying plasmid pAS6, grown in galactose medium; 130,000 x g membrane pellet
T2 sequence (P14180 whole entry): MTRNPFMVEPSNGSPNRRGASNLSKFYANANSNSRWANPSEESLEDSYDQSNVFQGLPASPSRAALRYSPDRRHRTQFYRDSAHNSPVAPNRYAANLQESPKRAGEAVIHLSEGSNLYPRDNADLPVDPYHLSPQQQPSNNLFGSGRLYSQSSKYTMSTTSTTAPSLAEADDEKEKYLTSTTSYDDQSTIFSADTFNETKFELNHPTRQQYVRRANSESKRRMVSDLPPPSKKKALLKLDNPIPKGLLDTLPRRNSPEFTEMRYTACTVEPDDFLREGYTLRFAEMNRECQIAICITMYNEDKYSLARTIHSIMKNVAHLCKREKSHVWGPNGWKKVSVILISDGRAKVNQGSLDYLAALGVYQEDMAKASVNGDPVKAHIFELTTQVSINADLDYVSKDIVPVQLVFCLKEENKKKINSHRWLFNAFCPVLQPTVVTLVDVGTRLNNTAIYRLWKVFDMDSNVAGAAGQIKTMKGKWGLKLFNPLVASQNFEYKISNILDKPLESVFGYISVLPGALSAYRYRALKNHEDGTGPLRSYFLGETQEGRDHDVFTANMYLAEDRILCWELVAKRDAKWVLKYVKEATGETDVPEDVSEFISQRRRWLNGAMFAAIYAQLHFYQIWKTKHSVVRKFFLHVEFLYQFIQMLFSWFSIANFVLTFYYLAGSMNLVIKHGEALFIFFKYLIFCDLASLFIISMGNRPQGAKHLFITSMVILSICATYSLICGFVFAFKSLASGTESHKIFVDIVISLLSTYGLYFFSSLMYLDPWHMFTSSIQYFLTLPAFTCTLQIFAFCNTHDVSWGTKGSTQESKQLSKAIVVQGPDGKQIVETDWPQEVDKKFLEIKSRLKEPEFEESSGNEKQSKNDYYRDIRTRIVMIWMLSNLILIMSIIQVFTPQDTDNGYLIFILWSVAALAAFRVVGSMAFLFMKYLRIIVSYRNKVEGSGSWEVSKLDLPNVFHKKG
Outline: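 Crude membrane chitin synthase 2 came from S. cerevisiae ECY38-38A(pAS6), expressing only CHS2, and was trypsin-activated (15 min, 30 °C) then trypsin-inhibited. The reaction ran in 32 mM Tris-HCl pH 7.5, 2 mM cobalt acetate, 1.1 mM UDP-[14C]-GlcNAc, 90 min at 30 °C. TCA-precipitated product was counted by scintillation; scores 1–8 reflect concentration relative to polyoxin D's 50% inhibition (score 5).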

[3] = test system: Candida parapsilosis ATCC 34136; test: In vitro antifungal activity (MIC), NCCLS method; assay type: cell-based; settings: Candida parapsilosis ATCC 34136; 48 hours
Outline: (§1)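 ATCC reference strains tested by NCCLS MIC method. Final inoculum 5×10^2 to 2.5×10^3 cell/mL over a two-fold dilution series; 48 h incubation.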

[4] = test system: Aspergillus fumigatus ATCC 16424; test: In vitro antifungal activity (MIC), NCCLS method; assay type: cell-based; settings: 48 hours
Outline: (§2)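 Broth microdilution per NCCLS: two-fold serial dilutions of test compound inoculated with fungal suspension at a final 5×10^2 to 2.5×10^3 cell/mL. Strains other than Cryptococcus neoformans were incubated 48 hours before MIC reading.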

[5] = test system: Candida albicans ATCC 10231; test: In vitro antifungal activity (MIC), NCCLS method; assay type: cell-based; settings: 48 hours
Outline: as §1

[6] = test system: Candida glabrata ATCC 48435; test: In vitro antifungal activity (MIC), NCCLS method; assay type: cell-based; settings: Candida glabrata ATCC 48435; 48 hours
Outline: as §1

[7] = test system: Candida tropicalis ATCC 13803; test: In vitro antifungal activity (MIC), NCCLS method; assay type: cell-based; settings: 48 hours
Outline: as §1

[8] = test system: Mucor ramosissimus ATCC 90286; test: In vitro antifungal activity (MIC), NCCLS method; assay type: cell-based; settings: 48 hours
Outline: as §1

[9] = test system: Aspergillus terreus ATCC 46941; test: In vitro antifungal activity (MIC), NCCLS method; assay type: cell-based; settings: 48 hours
Outline: as §2

[10] = test system: Candida lusitaniae ATCC 42720; test: In vitro antifungal activity (MIC), NCCLS method; assay type: cell-based; settings: 48 hours
Outline: as §1

Candida krusei ATCC 6258 = test: In vitro antifungal activity (MIC), NCCLS method; assay type: cell-based; settings: 48 hours
Outline: as §1

[11] = test system: Candida albicans A207 (clinical isolate); test: In vitro antifungal activity (MIC), NCCLS method; assay type: cell-based; settings: 48 hours
Outline: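 Broth MIC by NCCLS two-fold dilution, final inoculum 5×10^2 to 2.5×10^3 cell/mL. Candida and Mucor strains incubated 48 hours.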

[12] = test system: Cryptococcus neoformans ATCC 36556; test: In vitro antifungal activity (MIC), NCCLS method; assay type: cell-based; settings: RPMI 1640 medium, 72 hours
Outline: as §2

[13] = test system: Aspergillus flavus ATCC 64025; test: In vitro antifungal activity (MIC), NCCLS method; assay type: cell-based; settings: 48 hours
Outline: as §2

| Substance | Relative activity Enzyme 1 [1] | Relative activity Enzyme 2 [2] | MIC (minimum inhibitory concentration) [3] | MIC (minimum inhibitory concentration) [4] | MIC (minimum inhibitory concentration) [5] | MIC (minimum inhibitory concentration) [6] | MIC (minimum inhibitory concentration) [7] | MIC (minimum inhibitory concentration) [8] | MIC (minimum inhibitory concentration) [9] | MIC (minimum inhibitory concentration) [10] | MIC (minimum inhibitory concentration) (Candida krusei ATCC 6258) | MIC (minimum inhibitory concentration) [11] | MIC (minimum inhibitory concentration) [12] | MIC (minimum inhibitory concentration) [13] |
| --- | --- | --- | --- | --- | --- | --- | --- | --- | --- | --- | --- | --- | --- | --- |
| 13-(4-tert-Butylbenzyl)-9-O-allylberberrubine chloride [Compound No. 45] | 2 (Compounds having the inhibitory activity at 2-fold, 4-fold, 8-fold and 16-fold higher concentrations than that of polyoxin D were given the values of 4, 3, 2 and 1, respectively) | 6 (compounds having the inhibitory activity at ½, ¼ and ⅛ lower concentrations than that of polyoxin D were given the values of 6, 7 and 8, respectively) | 4 µg/mL | 8 µg/mL | 1 µg/mL | 8 µg/mL | 1 µg/mL | 4 µg/mL | 8 µg/mL | 2 µg/mL | 2 µg/mL | 1 µg/mL | 2 µg/mL | 8 µg/mL |
| 13-(4-tert-Butylbenzyl)-9-O-allylberberrubine iodide [Compound No. 13] | 2 (Compounds having the inhibitory activity at 2-fold, 4-fold, 8-fold and 16-fold higher concentrations than that of polyoxin D were given the values of 4, 3, 2 and 1, respectively) | 5 (A compound having the same inhibitory activity as that of polyoxin D at the same concentration was given the value 5) | 4 µg/mL | 8 µg/mL | 1 µg/mL | 8 µg/mL | 1 µg/mL | 4 µg/mL | 8 µg/mL | 2 µg/mL | 2 µg/mL | 1 µg/mL | 2 µg/mL | 8 µg/mL |
| 13-(4-tert-Butylbenzyl)-9-O-crotylberberrubine bromide [Compound No. 14] | 2 (Compounds having the inhibitory activity at 2-fold, 4-fold, 8-fold and 16-fold higher concentrations than that of polyoxin D were given the values of 4, 3, 2 and 1, respectively) | 5 (A compound having the same inhibitory activity as that of polyoxin D at the same concentration was given the value 5) | 4 µg/mL | 2 µg/mL | 0.5 µg/mL | 4 µg/mL | 0.5 µg/mL | 4 µg/mL | 4 µg/mL | 1 µg/mL | 1 µg/mL | 0.5 µg/mL | 1 µg/mL | 8 µg/mL |
| 13-(4-tert-Butylbenzyl)-9-O-crotylberberrubine chloride [Compound No. 46] | 2 (Compounds having the inhibitory activity at 2-fold, 4-fold, 8-fold and 16-fold higher concentrations than that of polyoxin D were given the values of 4, 3, 2 and 1, respectively) | 6 (compounds having the inhibitory activity at ½, ¼ and ⅛ lower concentrations than that of polyoxin D were given the values of 6, 7 and 8, respectively) | 4 µg/mL | 2 µg/mL | 0.5 µg/mL | 4 µg/mL | 0.5 µg/mL | 4 µg/mL | 4 µg/mL | 1 µg/mL | 1 µg/mL | 0.5 µg/mL | 1 µg/mL | 8 µg/mL |
| 13-(4-tert-Butylbenzyl)-9-O-hexylberberrubine chloride [Compound No. 41] | 4 (Compounds having the inhibitory activity at 2-fold, 4-fold, 8-fold and 16-fold higher concentrations than that of polyoxin D were given the values of 4, 3, 2 and 1, respectively) | 6 (compounds having the inhibitory activity at ½, ¼ and ⅛ lower concentrations than that of polyoxin D were given the values of 6, 7 and 8, respectively) | 2 µg/mL | 2 µg/mL | 0.25 µg/mL | 2 µg/mL | 0.125 µg/mL | 4 µg/mL | 8 µg/mL | 0.5 µg/mL | 1 µg/mL | 0.25 µg/mL | 0.5 µg/mL | 8 µg/mL |
| 13-(4-tert-Butylbenzyl)-9-O-hexylberberrubine iodide [Compound No. 9] | 3 (Compounds having the inhibitory activity at 2-fold, 4-fold, 8-fold and 16-fold higher concentrations than that of polyoxin D were given the values of 4, 3, 2 and 1, respectively) | 6 (compounds having the inhibitory activity at ½, ¼ and ⅛ lower concentrations than that of polyoxin D were given the values of 6, 7 and 8, respectively) | 2 µg/mL | 2 µg/mL | 0.25 µg/mL | 2 µg/mL | 0.125 µg/mL | 4 µg/mL | 8 µg/mL | 1 µg/mL | 1 µg/mL | 0.25 µg/mL | 1 µg/mL | 8 µg/mL |
| 13-(4-tert-Butylbenzyl)-9-O-octylberberrubine chloride [Compound No. 42] | 3 (Compounds having the inhibitory activity at 2-fold, 4-fold, 8-fold and 16-fold higher concentrations than that of polyoxin D were given the values of 4, 3, 2 and 1, respectively) | 6 (compounds having the inhibitory activity at ½, ¼ and ⅛ lower concentrations than that of polyoxin D were given the values of 6, 7 and 8, respectively) | 1 µg/mL | 2 µg/mL | 0.25 µg/mL | 1 µg/mL | 0.125 µg/mL | 2 µg/mL | 4 µg/mL | 0.5 µg/mL | 1 µg/mL | 0.25 µg/mL | 0.5 µg/mL | 4 µg/mL |
| 13-(4-tert-Butylbenzyl)-9-O-octylberberrubine iodide [Compound No. 10] | 3 (Compounds having the inhibitory activity at 2-fold, 4-fold, 8-fold and 16-fold higher concentrations than that of polyoxin D were given the values of 4, 3, 2 and 1, respectively) | 5 (A compound having the same inhibitory activity as that of polyoxin D at the same concentration was given the value 5) | 2 µg/mL | 2 µg/mL | 0.25 µg/mL | 2 µg/mL | 0.125 µg/mL | 2 µg/mL | 4 µg/mL | 0.5 µg/mL | 1 µg/mL | 0.25 µg/mL | 1 µg/mL | 4 µg/mL |
